Experimental data published in the supplement of paper PMC8960247.
Counter-ions that a name gives are not always drawn. ± gives the standard error.

Tests used:
621-102 (TSC2-deficient) = assay: relative viability vs DMSO; higher = less cytotoxic; conditions: serum: 10% FBS, 72 h
621-103 (TSC2-rescued) = assay: as above; conditions: serum: 10% FBS, 72 h
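Also: immortalized renal angiomyolipoma cells stably carrying empty vector or TSC2, dosed in 384-well plates in DMEM, viability normalized to vehicle-treated wells within each plate.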

Structure (SMILES)	relative viability (621-102 (TSC2-deficient); 0.0001 µM)	relative viability (621-102 (TSC2-deficient); 0.001 µM)	relative viability (621-102 (TSC2-deficient); 0.01 µM)	relative viability (621-102 (TSC2-deficient); 0.1 µM)	relative viability (621-102 (TSC2-deficient); 1 µM)	relative viability (621-102 (TSC2-deficient); 10 µM)	relative viability (621-103 (TSC2-rescued); 0.0001 µM)	relative viability (621-103 (TSC2-rescued); 0.001 µM)	relative viability (621-103 (TSC2-rescued); 0.01 µM)	relative viability (621-103 (TSC2-rescued); 0.1 µM)	relative viability (621-103 (TSC2-rescued); 1 µM)	relative viability (621-103 (TSC2-rescued); 10 µM)
CO[C@H]1/C=C\C=C(/C)C(=O)NC2=CC(=O)C(NCCN(C)C)=C(C[C@@H](C)C[C@H](OC)[C@H](O)[C@@H](C)/C=C(\C)[C@@H]1OC(N)=O)C2=O [17-DMAG]	76.2 ± 3.6%	58 ± 3.6%	28.6 ± 0.72%	21.7 ± 0.8%	26.3 ± 0.3%	16.31 ± 0.12%	90.6 ± 3%	41 ± 1.2%	5.591 ± 0.017%	5.287 ± 0.051%	6.16 ± 0.36%	3.07 ± 0.31%
CC(C)(Cc1ccc2ccccc2c1)NC[C@@H](O)COc1cccc(Cl)c1C#N [NPS-2143]	83.2 ± 5.7%	93.6 ± 6.1%	100 ± 2.8%	97.6 ± 1.3%	79.52 ± 0.42%	1 ± 0.14%	111 ± 4.1%	102 ± 2.2%	107 ± 1.8%	114 ± 2.6%	106.7 ± 0.6%	1.29 ± 0.19%
S=C(NCc1ccc2c(c1)OCO2)N1CCN(c2ncnc3c2oc2ccccc23)CC1 [MP-470]	105 ± 1.2%	116 ± 4.3%	112 ± 2.3%	125 ± 1.3%	118 ± 4.8%	116.2 ± 0.7%	88.5 ± 5.1%	104 ± 1.4%	103.8 ± 0.57%	106 ± 1.4%	105.95 ± 0.02%	112 ± 3.2%
CN(C)C(=O)Oc1cccc([N+](C)(C)C)c1 [Neostigmine bromide (Prostigmin)]	103 ± 4.6%	114 ± 3%	104.2 ± 0.97%	102 ± 7.2%	102 ± 6%	101.3 ± 0.82%	92.6 ± 3.7%	93.3 ± 2.9%	93.6 ± 1.3%	95.7 ± 2.7%	93.8 ± 2.1%	92.44 ± 0.58%
C[C@H](Cn1cnc2c(N)ncnc21)OCP(=O)(O)O [Tenofovir]	66.9 ± 0.97%	73.2 ± 1.9%	75.6 ± 11%	71.7 ± 5%	70.8 ± 6.7%	60.2 ± 5.8%	102 ± 5.5%	102 ± 1.9%	103 ± 5.3%	109 ± 4.2%	94 ± 7.9%	92.6 ± 4.3%
CN(C)CCCN1c2ccccc2CCc2ccc(Cl)cc21 [Clomipramine HCl]	114 ± 2.6%	109 ± 1.4%	111 ± 2.2%	111 ± 4%	109.6 ± 0.49%	85.7 ± 0.93%	100 ± 4.4%	102 ± 1.1%	102 ± 3.2%	108 ± 3%	93.4 ± 5.5%	75.7 ± 1.8%
COc1cccc(Nc2c(C(N)=O)cnc3c(C)cc(S(=O)(=O)c4cccc(C(=O)N(C)C)c4)cc23)c1	105 ± 5%	102 ± 2.6%	97.2 ± 5.1%	104 ± 2.7%	97.1 ± 0.98%	95.9 ± 2%	104 ± 3.4%	103.1 ± 0.49%	102 ± 3.5%	103.2 ± 0.47%	95.9 ± 3.8%	93.3 ± 3.2%
CC(/C=C/C(=O)NO)=C\[C@@H](C)C(=O)c1ccc(N(C)C)cc1 [Trichostatin A]	113.6 ± 0.35%	117 ± 1.7%	117.6 ± 0.42%	104.3 ± 0.83%	110 ± 1.2%	74.9 ± 3.8%	100.8 ± 0.21%	101 ± 1.4%	98.31 ± 0.47%	99.71 ± 0.22%	96.9 ± 1.4%	44.8 ± 2.1%
CCCCCOC(=O)Nc1nc(=O)n([C@@H]2O[C@H](C)[C@@H](O)[C@H]2O)cc1F [Capecitabine (Xeloda)]	108.6 ± 0.75%	112.3 ± 1.1%	110 ± 2.9%	106 ± 1.7%	110.4 ± 0.14%	100.35 ± 0.077%	103 ± 1.9%	99.6 ± 1.4%	101.3 ± 0.12%	99.27 ± 0.86%	99.79 ± 0.64%	100 ± 1.3%
Nc1ncnc2c1c(-c1cnc3[nH]ccc3c1)nn2C1CCCC1 [PP-121]	102 ± 4.8%	97.7 ± 2.4%	89.2 ± 0.2%	85 ± 1.9%	56.4 ± 0.66%	5.4 ± 0.81%	104.1 ± 0.76%	103 ± 2.2%	99.74 ± 0.75%	86.8 ± 3.6%	41.5 ± 1.9%	10.2 ± 0.22%
Clc1ccc(Nc2nnc(Cc3ccncc3)c3ccccc23)cc1 [Vatalanib]	94.7 ± 6.8%	102 ± 9.1%	115 ± 1.4%	108 ± 1.8%	110 ± 2.7%	117.2 ± 0.94%	104 ± 1.1%	106 ± 2%	106 ± 2.4%	105 ± 1.4%	103 ± 2.8%	110.66 ± 0.097%
C[C@@H]1CN(CC(=O)Nc2ccc3c(c2)Cc2cccc(-c4cc(=O)cc(N5CCOCC5)o4)c2S3)C[C@H](C)O1	101 ± 1.9%	96.34 ± 0.66%	96.06 ± 0.86%	97.1 ± 2.1%	97.3 ± 1.5%	65.9 ± 0.85%	79.7 ± 1.1%	86 ± 3.5%	83 ± 0.38%	84.6 ± 1%	77.8 ± 3.1%	59.4 ± 5.5%
C=CC(=O)Nc1cccc(Oc2nc(Nc3ccc(N4CCN(C)CC4)cc3)ncc2Cl)c1 [WZ3146]	112 ± 3.9%	110 ± 3.5%	106 ± 2.6%	107 ± 3.3%	97 ± 2.9%	23.8 ± 5.1%	103 ± 2%	100.6 ± 0.42%	100 ± 1.1%	101 ± 1.8%	79.4 ± 1.4%	12.9 ± 0.067%
C[N+]1(C)[C@@H]2C[C@@H](OC(=O)C(O)(c3cccs3)c3cccs3)C[C@H]1[C@@H]1O[C@@H]12 [Tiotropium]	119 ± 3.2%	114 ± 4.8%	115 ± 4.8%	111 ± 2.6%	117 ± 4.4%	112.5 ± 1.1%	82.2 ± 1.7%	96 ± 3.8%	103.3 ± 0.58%	96.8 ± 4.6%	102.87 ± 0.086%	100.4 ± 0.9%
Oc1c2ccccc2c2c3c(cccc13)N=N2	104.7 ± 0.13%	103 ± 4.5%	105 ± 1.1%	103 ± 1.3%	102 ± 4%	83.3 ± 2.2%	100.6 ± 0.42%	101 ± 1.9%	101.1 ± 0.35%	100.1 ± 0.67%	98.2 ± 1.6%	95.2 ± 2.7%
Cc1ncc([N+](=O)[O-])n1CC(C)O (stereo unspecified) [Secnidazole]	108.6 ± 0.66%	118.1 ± 0.34%	108 ± 3.4%	101 ± 3.9%	102.2 ± 0.53%	111 ± 3%	101 ± 2.1%	105 ± 3.6%	105 ± 4.5%	105.2 ± 0.64%	100 ± 4.3%	93.6 ± 4.8%
CCCNC(=O)Nc1ccc(Oc2ncnc3cc(OC)c(OC)cc23)cc1Cl [KRN 633]	84.4 ± 4.7%	119 ± 2.7%	104 ± 12%	94.6 ± 3.8%	100 ± 2.7%	102 ± 1.3%	85.6 ± 4.4%	95.9 ± 4.2%	100 ± 3%	96.9 ± 1.9%	90.3 ± 3.6%	99.8 ± 3.4%
CCN(CC)Cc1ccc2cc(COC(=O)Nc3ccc(C(=O)NO)cc3)ccc2c1 [ITF2357]	107 ± 6.2%	101 ± 3.4%	95.94 ± 0.22%	76.42 ± 0.1%	57.1 ± 3.5%	25.4 ± 0.77%	98.21 ± 0.79%	95.5 ± 1.7%	96 ± 2%	67.63 ± 0.33%	26.9 ± 0.91%	3.1 ± 0.064%
